Measurements from US20150004224A1.
Where “and” joins values, the source holds several entries; their conditions need not be identical. Equal values may be shown once.

Tested on: Hep G2 hepatocarcinoma cells
Test: Gene expression profiling of Hep G2 cells incubated with EPA, DHA, DPA (Illumina HT-12 bead arrays, Ingenuity iReport)
[1] = EPA 100 μM, DHA 40 μM, DPA 11 μM
[2] = top genes uniquely regulated by DPA (11 μM), 48 hours

`CC/C=C\C/C=C\C/C=C\C/C=C\C/C=C\CCCCCC(=O)O` [DPA, docosapentaenoic acid (C22:5 n-3)] was tested, and the “number of genes involved in lipid metabolism responsive” value (1 μM DPA) was 2 genes, the “fewer genes affected at the lower than at the higher DPA concentration” value (1 μM vs 11 μM DPA) was 10 fold and the “increase in number of cardiovascular physiology genes affected” value (11 μM DPA vs 1 μM DPA) was “five-fold”. The “number of lipid metabolism genes uniquely responding with statistically significant change in expression” value (11 μM DPA, not 1 μM) was 22 genes, the “number of genes uniquely responsive to the higher, but not the lower, DPA level” value (11 μM vs 1 μM DPA) was 310 genes and 300 genes and the “Cardiovascular: Total gene responses Low [DPA]” value (DPA 1 μM) was 10. The “Inflammatory: Total gene responses Low [DPA]” value (DPA 1 μM) was 18, the “Lipid metabolism: Total gene responses Low [DPA]” value (DPA 1 μM) was 2 and the “Cardiovascular: Gene responses in common” value (DPA 1 μM and 11 μM) was 6. The “Inflammatory: Gene responses in common” value (DPA 1 μM and 11 μM) was 4, the “Lipid metabolism: Gene responses in common” value (DPA 1 μM and 11 μM) was 0 and the “APOA2 expression Fold Change” value (DPA 11 μM) was −1.229. The “CD83 expression Fold Change” value (DPA 11 μM) was −1.629, the “Cardiovascular: Total gene responses High [DPA]” value (DPA 11 μM) was 51 and the “DGAT1 expression Fold Change” value (DPA 11 μM) was 1.602. For the same compound, the “DNAJB1 expression Fold Change” value (DPA 11 μM) was −1.489, the “FGFR3 expression Fold Change” value (DPA 11 μM) was 1.336 and the “GNAI3 expression Fold Change” value (DPA 11 μM) was 1.455. For the same compound, the “IL8 expression Fold Change” value (DPA 11 μM) was −2.535, the “IL18 (includes EG: 16173) expression Fold Change” value (DPA 11 μM) was −1.347 and the “IL32 expression Fold Change” value (DPA 11 μM) was −1.629. The “IP6K1 expression Fold Change” value (DPA 11 μM) was −1.242, the “IP6K2 expression Fold Change” value (DPA 11 μM) was 1.319 and the “Inflammatory: Total gene responses High [DPA]” value (DPA 11 μM) was 22. For the same compound, the “KIT expression Fold Change” value (DPA 11 μM) was 1.239, the “Lipid metabolism: Total gene responses High [DPA]” value (DPA 11 μM) was 22 and the “NFKB1 expression Fold Change” value (DPA 11 μM) was −1.386. The “PDPN (includes EG: 10630) expression Fold Change” value (DPA 11 μM) was −1.307, the “PGF expression Fold Change” value (DPA 11 μM) was −1.284 and the “PIP4K2B expression Fold Change” value (DPA 11 μM) was −1.578. The “PLA2G16 expression Fold Change” value (DPA 11 μM) was −1.337, the “PLIN5 expression Fold Change” value (DPA 11 μM) was −1.371 and the “PTGR2 expression Fold Change” value (DPA 11 μM) was −1.416. For the same compound, the “PTX3 expression Fold Change” value (DPA 11 μM) was −1.536, the “RGS2 (includes EG: 19735) expression Fold Change” value (DPA 11 μM) was 1.289 and the “STIP1 expression Fold Change” value (DPA 11 μM) was −1.469. The “ACADSB (short/branched chain acyl-CoA dehydrogenase) expression” value (DPA at 11 μM) was “upregulates”, the HMGCR expression (DPA at 11 μM) was “downregulated” and the SQLE expression (DPA at 11 μM) was “downregulated”. The “AHSA2 regulation (top genes commonly regulated)” value (“AHSA2 regulation” for short) [1] was “↑”, the “AHSA2 up-regulation: symbol for regulation in common” value [1] was “→♦” and the “ALPP down-regulation: symbol for regulation in common” value [1] was “¶(DHA)”. The “ALPP regulation (top genes commonly regulated)” value [1] was “↓”, the “CATSPER2 down-regulation: symbol for regulation in common” value [1] was “→♦” and the “CATSPER2 regulation (top genes commonly regulated)” value (shortened to “CATSPER2 regulation”) [1] was “↓”. For the same compound, the “CCBE1 down-regulation: symbol for regulation in common” value [1] was “¶(DHA)”, the “CCBE regulation (top genes commonly regulated)” value [1] was “↓” and the “CCL20 regulation (top genes commonly regulated)” value (shortened to “CCL20 regulation”) [1] was “↓”. For the same compound, the “CDKN2AIPNL regulation (top genes commonly regulated)” value (“CDKN2AIPNL regulation” below) [1] was “↓”, the “DDX51 down-regulation: symbol for regulation in common” value [1] was “¶(DHA)” and the “DDX51 regulation (top genes commonly regulated)” value [1] was “↓”. For the same compound, the “IL8 regulation (top genes commonly regulated)” value (shortened to “IL8 regulation”) [1] was “↓”, the “MST1 (includes EG: 15235) regulation (top genes commonly regulated)” value [1] was “↑” and the “MST1 (includes EG: 15235) up-regulation: symbol for regulation in common” value [1] was “→¶(DHA)”. The “RELB down-regulation: symbol for regulation in common” value [1] was “¶(EPA)”, the “RELB regulation (top genes commonly regulated)” value [1] was “↓” and the “SRSF1 regulation (top genes commonly regulated)” value [1] was “↑”. For the same compound, the “SRSF1 up-regulation: symbol for regulation in common” value [1] was “→¶(EPA)”, the “increase in number of genes involved in inflammatory pathways” value (printed: observed at 1 μM) was “only a minor increase” and the ALDOC gene regulation [2] was “↑”. For the same compound, the AMT gene regulation [2] was “↑”, the HNRNPA2B1 gene regulation [2] was “↑” and the MGC16121 gene regulation [2] was “↑”. For the same compound, the PRKCD gene regulation [2] was “←”, the QRFPR gene regulation [2] was “↓” and the “RELA (inhibited) gene regulation” value [2] was “←”. The SRSF5 gene regulation [2] was “↑”, the STK36 gene regulation [2] was “↑” and the “TLR7 (inhibited) gene regulation” value [2] was “←”. The TOP3B gene regulation [2] was “↑” and the ZNF14 gene regulation [2] was “↑”.
In the case of `CC/C=C\C/C=C\C/C=C\C/C=C\C/C=C\CCCC(=O)O` [EPA, eicosapentaenoic acid (C20:5 n-3)], the “Beta-estradiol (inhibited) (top genes uniquely regulated by EPA)” value (EPA 100 μM) is reported as “←”, the “GNAI3 regulation (top genes uniquely regulated by EPA)” value (EPA 100 μM) is reported as “↑” and the “GOS2 regulation (top genes uniquely regulated by EPA)” value (EPA 100 μM) is reported as “↓”. The “HERPUD1 regulation (top genes uniquely regulated by EPA)” value (EPA 100 μM) was “↓”, the “HIST2H2BE (includes others) regulation (top genes uniquely regulated by EPA)” value (EPA 100 μM) was “↑” and the “IER3 regulation (top genes uniquely regulated by EPA)” value (EPA 100 μM) was “↓”. The “IL2 (inhibited) (top genes uniquely regulated by EPA)” value (EPA 100 μM) was “←”, the “Lipopolysaccharide (inhibited) (top genes uniquely regulated by EPA)” value (EPA 100 μM) was “←” and the “MAT2A regulation (top genes uniquely regulated by EPA)” value (EPA 100 μM) was “↑”. The “NFKBIA regulation (top genes uniquely regulated by EPA)” value (EPA 100 μM) was “↓”, the “NFkB (complex) (inhibited) (top genes uniquely regulated by EPA)” value (EPA 100 μM) was “←” and the “RGS2 (includes EG: 19735) regulation (top genes uniquely regulated by EPA)” value (EPA 100 μM) was “↑”. The “AHSA2 regulation” value [1] was “↑”, the “CATSPER2 regulation” value [1] was “↓” and the “CCL20 regulation” value [1] was “↓”. For the same compound, the “CDKN2AIPNL regulation” value [1] was “↓”, the “HIST1H3A (includes others) up-regulation: symbol for regulation in common” value [1] was “¶(DHA)” and the “HIST2H2AA3/HIST2H2AA4 up-regulation: symbol for regulation in common” value [1] was “¶(DHA)”. The “IL8 regulation” value [1] was “↓”, the “LOX up-regulation: symbol for regulation in common” value [1] was “¶(DHA)” and the “RELB down-regulation: symbol for regulation in common” value [1] was “¶(DPA)”. The “RELB regulation (top genes commonly regulated)” value [1] was “↓”, the “SRSF1 regulation (top genes commonly regulated)” value [1] was “↑” and the “SRSF1 up-regulation: symbol for regulation in common” value [1] was “¶(DPA)”.
With `CC/C=C\C/C=C\C/C=C\C/C=C\C/C=C\C/C=C\CCC(=O)O` [DHA, docosahexaenoic acid (C22:6 n-3)] the “FOXO3 regulation (top genes uniquely regulated by DHA)” value (DHA 40 μM) was “←”, the “LSMD1 regulation (top genes uniquely regulated by DHA)” value (DHA 40 μM) was “↑” and the “MAP2K2 regulation (top genes uniquely regulated by DHA)” value (DHA 40 μM) was “↓”. For the same compound, the “MRPS34 regulation (top genes uniquely regulated by DHA)” value (DHA 40 μM) was “↑”, the “MT1X regulation (top genes uniquely regulated by DHA)” value (DHA 40 μM) was “↑” and the “NFKB1 regulation (top genes uniquely regulated by DHA)” value (DHA 40 μM) was “←”. For the same compound, the “SNORA62 regulation (top genes uniquely regulated by DHA)” value (DHA 40 μM) was “↑”, the “TNFSF11 regulation (top genes uniquely regulated by DHA)” value (DHA 40 μM) was “←” and the “ZNF652 regulation (top genes uniquely regulated by DHA)” value (DHA 40 μM) was “↓”. The “AHSA2 regulation” value [1] was “↑”, the “ALPP down-regulation: symbol for regulation in common” value [1] was “¶(DPA)” and the “ALPP regulation (top genes commonly regulated)” value [1] was “↓”. For the same compound, the “CATSPER2 regulation” value [1] was “↓”, the “CCBE1 down-regulation: symbol for regulation in common” value [1] was “¶(DPA)” and the “CCBE regulation (top genes commonly regulated)” value [1] was “↓”. The “CCL20 regulation” value [1] was “↓”, the “CDKN2AIPNL regulation” value [1] was “↓” and the “DDX51 down-regulation: symbol for regulation in common” value [1] was “¶(DPA)”. The “DDX51 regulation (top genes commonly regulated)” value [1] was “↓”, the “HIST2H2AA3/HIST2H2AA4 up-regulation: symbol for regulation in common” value [1] was “¶(EPA)” and the “IL8 regulation” value [1] was “↓”. For the same compound, the “LOX up-regulation: symbol for regulation in common” value [1] was “¶(EPA)”, the “MST1 (includes EG: 15235) regulation (top genes commonly regulated)” value [1] was “↑” and the “MST1 (includes EG: 15235) up-regulation: symbol for regulation in common” value [1] was “¶(DPA)”.
